Results on 19 compounds are retold here after patent US9695154B2, “Heteroaryl inhibitors of sumo activating enzyme” (MILLENNIUM PHARMACEUTICALS, INC., priority 2013, dated 2017).

Some results are limits rather than exact numbers.

This assay addresses T1, recombinant human SAE enzyme (Homo sapiens, UniProt Q9UBT2).
T1 sequence (Q9UBT2 1-640): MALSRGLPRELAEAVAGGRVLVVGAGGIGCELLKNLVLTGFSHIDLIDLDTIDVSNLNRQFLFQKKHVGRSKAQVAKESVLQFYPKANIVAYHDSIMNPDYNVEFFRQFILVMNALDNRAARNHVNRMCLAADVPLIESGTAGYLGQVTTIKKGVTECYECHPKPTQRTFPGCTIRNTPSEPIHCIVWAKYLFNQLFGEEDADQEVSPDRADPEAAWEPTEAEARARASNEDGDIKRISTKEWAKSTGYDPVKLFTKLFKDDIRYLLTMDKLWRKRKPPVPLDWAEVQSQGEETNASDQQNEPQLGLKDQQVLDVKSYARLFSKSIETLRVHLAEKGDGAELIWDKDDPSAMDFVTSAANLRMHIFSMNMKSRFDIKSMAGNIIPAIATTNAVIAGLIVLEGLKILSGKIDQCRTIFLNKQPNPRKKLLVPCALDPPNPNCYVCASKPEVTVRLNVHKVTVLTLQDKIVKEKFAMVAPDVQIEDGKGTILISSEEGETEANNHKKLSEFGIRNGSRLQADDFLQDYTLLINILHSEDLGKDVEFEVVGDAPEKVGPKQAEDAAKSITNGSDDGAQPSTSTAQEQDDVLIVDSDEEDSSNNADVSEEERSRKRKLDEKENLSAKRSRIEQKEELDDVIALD
T1 sequence (Q9UBE0 1-346 partner): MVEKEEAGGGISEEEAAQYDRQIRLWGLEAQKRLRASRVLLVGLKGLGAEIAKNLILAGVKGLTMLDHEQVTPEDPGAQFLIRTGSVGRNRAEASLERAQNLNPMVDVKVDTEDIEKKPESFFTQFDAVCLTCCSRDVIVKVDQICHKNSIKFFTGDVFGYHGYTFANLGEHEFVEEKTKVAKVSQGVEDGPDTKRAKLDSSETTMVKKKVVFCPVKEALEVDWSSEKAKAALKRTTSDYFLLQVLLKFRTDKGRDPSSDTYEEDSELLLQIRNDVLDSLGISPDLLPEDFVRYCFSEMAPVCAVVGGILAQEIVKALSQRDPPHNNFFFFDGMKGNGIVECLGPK
Briefly: SAE HTRF Enzyme Assay. Format: biochemical. To be noted: for IC50: class symbols A-C; for inhibition at 0.111 µM: compound concentration 0.111 μM, read-out: Percent Inhibition. In short, it runs like this:
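Measured as FRET after a 2 h antibody step: SAE (0.11 nM) thioester transfer of Sumo-Flag to Ubc9-GST, 0.5 μM ATP, 24° C for 105 min, quenched with 20 mM EDTA. Output is IC50 or percent inhibition at a single concentration.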

As a reminder, the IC50 is the concentration that inhibits the measured activity by half. A word on the inhibition: it is the percentage by which the read-out fell short of the control. For `NS(=O)(=O)OC[C@H]1C[C@@H](Nc2ncncc2C(=O)c2ccn(Cc3cc(C(F)(F)F)co3)c2)[C@@H](F)[C@@H]1O` [Compound I-114, [(1R,2R,3R,4R)-3-fluoro-2-hydroxy-4-({5-[(1-{[4-(trifluoromethyl)-2-furyl]methyl}-1H-pyrrol-3-yl)carbonyl]pyrimidin-4-yl}amino)cyclopentyl]methyl sulfamate], the IC50 was under 0.01 µM and the inhibition at 0.111 µM was 98%.

For `CC#CCCn1ccc(C(=O)c2cncnc2N[C@@H]2C[C@H](COS(N)(=O)=O)[C@@H](O)C2)n1` [Compound I-115], the IC50 is 0.1 to 1 µM and the inhibition at 0.111 µM is 33%.

Turning to `C=CC(=O)N(C)c1cccc(Cn2ccc(C(=O)c3cncnc3N[C@@H]3C[C@H](COS(N)(=O)=O)[C@@H](O)[C@@H]3F)n2)c1` [Compound I-116, [(1R,2R,3R,4R)-4-({5-[(1-{3-[Acryloyl(methyl)amino]benzyl}-1H-pyrazol-3-yl)carbonyl]pyrimidin-4-yl}amino)-3-fluoro-2-hydroxycyclopentyl]methyl sulfamate], the IC50 lay within 0.1 to 1 µM and the inhibition at 0.111 µM came out at 33%.

As to `NS(=O)(=O)OC[C@H]1C[C@@H](Nc2ncncc2C(=O)c2ccn(Cc3cccc(OC(F)F)c3)n2)C[C@@H]1O` [Compound I-117, [(1R,2S,4R)-4-{[5-({1-[3-(difluoromethoxy)benzyl]-1H-pyrazol-3-yl}carbonyl)pyrimidin-4-yl]amino}-2-hydroxycyclopentyl]methyl sulfamate], the IC50 was under 0.01 µM and the inhibition at 0.111 µM was found to be 98%.

With `NS(=O)(=O)OC[C@H]1C[C@@H](Nc2ncncc2C(=O)c2ccn(CCc3cccc4ccccc34)n2)[C@H](O)[C@@H]1O` [Compound I-118, [(1R,2R,3S,4R)-2,3-dihydroxy-4-{[5-({1-[2-(1-naphthyl)ethyl]-1H-pyrazol-3-yl}carbonyl)pyrimidin-4-yl]amino}cyclopentyl]methyl sulfamate], the IC50 is under 0.01 µM and the inhibition at 0.111 µM was found to be 99%.

In the case of `NS(=O)(=O)OC[C@H]1C[C@@H](Nc2ncncc2C(=O)c2ccn(Cc3cccc(C(F)(F)F)c3)n2)[C@H](O)[C@@H]1O` [Compound I-119, [(1R,2R,3S,4R)-2,3-dihydroxy-4-{[5-({1-[3-(trifluoromethyl)benzyl]-1H-pyrazol-3-yl}carbonyl)pyrimidin-4-yl]amino}cyclopentyl]methyl sulfamate], the IC50 is under 0.01 µM and the inhibition at 0.111 µM stood at 98%.

For the compound `NS(=O)(=O)OC[C@H]1C[C@@H](Nc2ncncc2C(=O)c2ccn(Cc3cccc(C4(O)COC4)n3)n2)C[C@@H]1O` [Compound I-120, [(1R,2S,4R)-2-hydroxy-4-({5-[(1-{[6-(3-hydroxyoxetan-3-yl)pyridin-2-yl]methyl) 1H pyrazol-3-yl)carbonyl]pyrimidin-4-yl}amino)cyclopentyl]methyl sulfamate], the IC50 is 0.1 to 1 µM and the inhibition at 0.111 µM came to 47%.

Turning to `NS(=O)(=O)OC[C@H]1C[C@@H](Nc2ncncc2C(=O)c2ccn(Cc3ccc(F)cc3C(F)(F)F)n2)[C@H](O)[C@@H]1O` [Compound I-121, [(1R,2R,3S,4R)-4-{[5-({1-[4-fluoro-2-(trifluoromethyl)benzyl]-1H-pyrazol-3-yl}carbonyl)pyrimidin-4-yl]amino}-2,3-dihydroxycyclopentyl]methyl sulfamate], the IC50 was under 0.01 µM and the inhibition at 0.111 µM came to 94%.

Take `NS(=O)(=O)OC[C@H]1C[C@@H](Nc2ncncc2C(=O)c2ccn(Cc3ccc(F)c(Cl)c3)n2)[C@@H](F)[C@@H]1O` [Compound I-122, {(1R,2R,3R,4R)-4-[(5-{[1-(3-chloro-4-fluorobenzyl)-1H-pyrazol-3-yl]carbonyl}pyrimidin-4-yl)amino]-3-fluoro-2-hydroxycyclopentyl}methyl sulfamate]: the IC50 was under 0.01 µM and the inhibition at 0.111 µM amounted to 99%.

As for `NS(=O)(=O)OC[C@H]1C[C@@H](Nc2ncncc2C(=O)c2ccn(Cc3cccc(F)c3)n2)[C@H](O)[C@@H]1O` [Compound I-123, {(1R,2R,3S,4R)-4-[(5-{[1-(3-fluorobenzyl)-1H-pyrazol-3-yl]carbonyl}pyrimidin-4-yl)amino]-2,3-dihydroxycyclopentyl}methyl sulfamate], the IC50 is under 0.01 µM and the inhibition at 0.111 µM stood at 100%.

As to `NS(=O)(=O)OC[C@H]1C[C@@H](Nc2ccncc2C(=O)c2ccn(Cc3cccc(Cl)c3)c2)[C@@H](F)[C@@H]1O` [Compound I-124, {(1R,2R,3R,4R)-4-[(3-{[1-(3-chlorobenzyl)-1H-pyrrol-3-yl]carbonyl}pyridin-4-yl)amino]-3-fluoro-2-hydroxycyclopentyl}methyl sulfamate], the IC50 is under 0.01 µM and the inhibition at 0.111 µM amounted to 97%.

Turning to `NS(=O)(=O)OC[C@H]1C[C@@H](Nc2ncncc2C(=O)c2ccn(CC(=O)c3ccccc3)n2)[C@H](O)[C@@H]1O` [Compound I-125, {(1R,2R,3S,4R)-2,3-Dihydroxy-4-[(5-{([1-(2-oxo-2-phenylethyl)-1H-pyrazol-3-yl]carbonyl}pyrimidin-4-yl)amino]cyclopentyl}methyl sulfamate], the IC50 was under 0.01 µM and the inhibition at 0.111 µM came out at 99%.

Regarding `NS(=O)(=O)OC[C@H]1C[C@@H](Nc2ncncc2C(=O)c2ccn(Cc3ccc(Cl)c(SC(F)(F)F)c3)n2)[C@H](O)[C@@H]1O` [Compound I-126, [(1R,2R,3S,4R)-4-({5-[(1-{4-chloro-3-[(trifluoromethyl)sulfanyl]benzyl}-1H-pyrazol-3-yl)carbonyl]pyrimidin-4-yl}amino)-2,3-dihydroxycyclopentyl]methyl sultamate], the IC50 was under 0.01 µM and the inhibition at 0.111 µM was over 99%.

Turning to `NS(=O)(=O)OC[C@H]1C[C@@H](Nc2ncncc2C(=O)c2ccn(Cc3ccc(Cl)c(Br)c3)n2)[C@@H](F)[C@@H]1O` [Compound I-127, {(1R,2R,3R,4R)-4-[(5-{[1-(3-bromo-4-chlorobenzyl)-1H-pyrazol-3-yl]carbonyl}pyrimidin-4-yl)amino]-3-fluoro-2-hydroxycyclopentyl}methyl sulfamate], the IC50 is under 0.01 µM and the inhibition at 0.111 µM stood at 99%.

On to `Cc1cccc(Cn2ccc(C(=O)c3cncnc3N[C@@H]3C[C@H](COS(N)(=O)=O)[C@@H](O)C3)n2)c1` [Compound I-128, {(1R,2S,4R)-2-hydroxy-4-[(5-{[1-(3-methylbenzyl)-1H-pyrazol-3-yl]carbonyl}pyrimidin-4-yl)amino]cyclopentyl}methyl sulfamate], for which the IC50 is under 0.01 µM and the inhibition at 0.111 µM is 98%.

As to `NS(=O)(=O)OC[C@H]1C[C@@H](Nc2ncncc2C(=O)c2ccn(Cc3cccc(C(F)(F)F)c3)c2)C[C@@H]1O` [Compound I-129, [(1R,2S,4R)-2-hydroxy-4-{[5-({1-[3-(trifluoromethyl)benzyl]-1H-pyrrol-3-yl}carbonyl)pyrimidin-4-yl]amino}cyclopentyl]methyl sulfamate], the IC50 is under 0.01 µM and the inhibition at 0.111 µM stood at 99%.

As for `NS(=O)(=O)OC[C@H]1C[C@@H](Nc2ncncc2C(=O)c2ccn(Cc3ccc(C(F)(F)F)o3)n2)[C@H](O)[C@@H]1O` [Compound I-130, [(1R,2R,3S,4R)-2,3-dihydroxy-4-({5-[(1-{[5-(trifluoromethyl)-2-furyl]methyl}-1H-pyrazol-3-yl)carbonyl]pyrimidin-4-yl}amino)cyclopentyl]methyl sulfamate], the IC50 was under 0.01 µM and the inhibition at 0.111 µM came out at 98%.

For `NS(=O)(=O)OC[C@H]1C[C@@H](Nc2ncncc2C(=O)c2ccn(Cc3cccc(OC(F)(F)F)c3)c2)[C@@H](F)[C@@H]1O` [Compound I-131, [(1R,2R,3R,4R)-3-Fluoro-2-hydroxy-4-{[5-({1-[3-(trifluoromethoxy)benzyl]-1H-pyrrol-3-yl}carbonyl)pyrimidin-4-yl]amino}cyclopentyl]methyl sulfamate], the IC50 is under 0.01 µM and the inhibition at 0.111 µM came out at 96%.

For `NS(=O)(=O)OC[C@H]1C[C@@H](Nc2ccncc2C(=O)c2ccn(Cc3cccc(OC(F)(F)F)c3)c2)[C@@H](F)[C@@H]1O` [Compound I-132, [(1R,2R,3R,4R)-3-Fluoro-2-hydroxy-4-{[3-({1-[3-(trifluoromethoxy)benzyl]-1H-pyrrol-3-yl}carbonyl)pyridin-4-yl]amino}cyclopentyl]methyl sulfamate], the IC50 was 0.01 to 0.1 µM and the inhibition at 0.111 µM is 78%.
